Target: T1, EH (recombinant mouse sEH) (Mus musculus, UniProt P34914)
T1 sequence (P34914 1-554): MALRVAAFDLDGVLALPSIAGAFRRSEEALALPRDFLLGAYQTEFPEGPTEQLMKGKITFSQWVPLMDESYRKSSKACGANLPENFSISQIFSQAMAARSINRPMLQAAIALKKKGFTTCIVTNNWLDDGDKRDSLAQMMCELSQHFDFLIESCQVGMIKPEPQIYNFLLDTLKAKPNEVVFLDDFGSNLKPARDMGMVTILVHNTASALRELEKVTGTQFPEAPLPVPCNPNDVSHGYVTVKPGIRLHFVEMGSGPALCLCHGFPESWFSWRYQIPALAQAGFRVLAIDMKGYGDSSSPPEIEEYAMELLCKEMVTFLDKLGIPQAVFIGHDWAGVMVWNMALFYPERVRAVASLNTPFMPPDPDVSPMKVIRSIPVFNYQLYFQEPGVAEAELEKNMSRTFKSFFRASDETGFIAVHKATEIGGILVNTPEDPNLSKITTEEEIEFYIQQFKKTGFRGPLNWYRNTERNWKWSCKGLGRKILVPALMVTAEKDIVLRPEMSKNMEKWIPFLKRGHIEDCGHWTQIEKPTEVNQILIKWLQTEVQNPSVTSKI
Assay: Effect of EH on the fluorescence of naphthyl derivatives
Format: binding
Conditions: ex 330 nm, EH 0–100 nM

Q: For `O=C(Nc1ccc(O)c2ccccc12)NC1CCCCC1` [XIIa], which “Effect of EH on fluorescence of the naphthyl derivative (in words)” value is on record?
A: appearance of a new peak and a clear enhancement of fluorescence

Reference: article PMC2861369 (Current pharmaceutical biotechnology, 2009)
